According to article PMC10186366 (ACS Pharmacology & Translational Science, 2023):

Legend:
[1] = system: PC43-10 CHO cells (expresses only human RFC); experiment: Cell proliferation assay, PC43-10 CHO subline; type: cell-based, Chinese hamster; settings: 96 h, up to 1000 nM, 25 nM leucovorin, mean (standard error); for IC50: Homo sapiens, PC43-10
Source text: (§1) We used a unique panel of engineered Chinese hamster ovary (CHO) sublines derived from a transporter-null MTXRIIOua^R2-4 CHO subline (R2) and designed to individually express human FRα (RT16), FRβ (D4), RFC (PC43-10), or PCFT (R2/PCFT).[39]−[42] As the CHO sublines are isogenic and differ only in the presence or absence of the human folate transporters, differences in the extent of inhibition of cell proliferation between the cell lines upon treatment with the various compounds provide a robust readout of transport specificities.[25],[26],[29],[30],[43]
(§2) The CHO sublines were treated for 96 h with a range of drug concentrations up to 1000 nM; cell viabilities were measured with a fluorescence assay.[26] […] As a control, we used transporter-null R2 cells.[42] To extend studies to human tumor cells, we also performed experiments in RFC-, PCFT-, and FRα-expressing KB tumor cells.[44] To confirm the contribution of FR-mediated uptake to antitumor activity, for KB cells, we added 200 nM folic acid, which inhibits FR uptake by direct competition without effects on either RFC or PCFT.[25],[26],[28]−[30],[43]
(§3) The MTXRIIOua^R2-4 RFC-, PCFT-, and FRα-null Chinese hamster ovary (CHO) cell line (R2) was a gift from Dr. Wayne Flintoff (University of Western Ontario).[40],[42] Isogenic CHO cell lines were subsequently derived from R2 cells by transfection with RFC, PCFT, or FRα cDNAs to generate PC43-10 (expresses only human RFC), R2/PCFT4 (expresses only human PCFT), RT16 (expresses only human FRα), and D4 (expresses only human FRβ).[25],[26],[39]
(§4) The CHO sublines were cultured in α-minimal essential medium (α-MEM) supplemented with 100 U/mL penicillin/100 μg/mL streptomycin, 2 mM L-glutamine, and 10% bovine calf serum (Sigma-Aldrich). For the PC43-10, R2/PCFT4, RT16, and D4 sublines, 1.5 mg/mL G418 was also added. Seventy-two hours prior to in vitro proliferation assays (below), RT16 and D4 CHO cells were grown in folate-free RPMI with dialyzed fetal bovine serum (DFBS) (Invitrogen) supplemented with 100 U/mL penicillin/[…] streptomycin and 2 mM L-glutamine. FRα-expressing KB nasopharyngeal carcinoma cells were acquired from the American Type Culture Collection (Manassas, VA); cells were grown in complete folate-free RPMI 1640 supplemented with 10% fetal bovine serum, 100 U/mL penicillin/100 μg/mL streptomycin, and 2 mM L-glutamine. Cell lines were authenticated by STR analysis (Genetica DNA Laboratories, Burlington, NC) and tested for Mycoplasma by PCR (Venor GeM Mycoplasma Detection Kit, Sigma). Frozen stocks were generated from authenticated Mycoplasma-free cultures.
(§5) Cell proliferation assays used CHO and KB cells cultured in folate-free-RPMI 1640 media with 10% DFBS, 2 mM L-glutamine, and 100 U/mL penicillin/100 μg/mL streptomycin supplemented with 2 nM (KB, RT16, D4) or 25 nM (R2, PC43-10, R2/PCFT4) leucovorin.[25],[26],[30] Parallel incubations with 200 nM folic acid were performed in viability assays to confirm FR-mediated drug uptake. Cells were plated in 96-well dishes at 2500–5000 cells/well in 200 μL media and treated with a range of C1 inhibitors spanning 0 to 1 μM. Cells were treated at 37 ° C with 5% CO2, and numbers were assayed after 96 h using CellTiter-blue (Promega, Madison, WI) and a fluorescence plate reader.[25],[26]

[2] = system: R2 (MTXRIIOuaR2-4) RFC-, PCFT-, and FRα-null CHO cells; experiment: Cell proliferation assay, transporter-null R2 CHO subline; type: cell-based, Chinese hamster; settings: Cricetulus griseus, transporter-null control cells, 96 h, up to 1000 nM, mean (standard error)
Source text: as §1, §2, §3, §4, §5

[3] = system: R2/PCFT4 CHO cells (expresses only human PCFT); experiment: Cell proliferation assay, R2/PCFT4 CHO subline; type: cell-based, Chinese hamster; settings: 96 h, 25 nM leucovorin, mean (standard error)
Source text: as §1, §2, §3, §4, §5

[4] = system: KB human tumor cells (RFC/FRα/PCFT); experiment: Cell proliferation assay, KB tumor cells (with or without 200 nM folic acid); type: cell-based; settings: 96 h, 2 nM leucovorin, no folic acid, mean (standard error)
Description: as §2, §4, §5

## Nc1nc2sc(CCCCc3cccc(C(=O)N[C@@H](CCC(=O)O)C(=O)O)n3)cc2c(=O)[nH]1 [Compound 3, (6-(4-(2-Amino-4-oxo-3,4-dihydrothieno[2,3-d]pyrimidin-6-yl)butyl)picolinoyl)-L-glutamic Acid]
[1]
  IC50: > 1000 nM
[2]
  IC50: > 1000 nM
[3]
  IC50: > 1000 nM
other
  melting point: 125.8 to 126.2 °C

## Nc1nc2sc(CCCCc3ccc(C(=O)N[C@@H](CCC(=O)O)C(=O)O)nc3)cc2c(=O)[nH]1 [Compound 4, (5-(4-(2-Amino-4-oxo-3,4-dihydrothieno[2,3-d]pyrimidin-6-yl)butyl)picolinoyl)-L-glutamic Acid]
[1]
  IC50: > 1000 nM
[2]
  IC50: > 1000 nM
[3]
  IC50: 318 nM
[4]
  IC50: 2.11 nM

## Nc1nc2sc(CCCCc3cnc(C(=O)N[C@@H](CCC(=O)O)C(=O)O)c(F)c3)cc2c(=O)[nH]1 [Compound 5, (5-(4-(2-Amino-4-oxo-3,4-dihydrothieno[2,3-d]pyrimidin-6-yl)butyl)-3-fluoropicolinoyl)-L-glutamic Acid]
[1]
  IC50: > 1000 nM
[2]
  IC50: > 1000 nM
[3]
  IC50: 344 nM
[4]
  IC50: 5.05 nM
other
  melting point: 128 to 129.7 °C

## Nc1nc2sc(CCCc3ccc(C(=O)N[C@@H](CCC(=O)O)C(=O)O)c(F)c3)cc2c(=O)[nH]1 [Compound 6, (4-(3-(2-Amino-4-oxo-3,4-dihydrothieno[2,3-d]pyrimidin-6-yl)propyl)-2-fluorobenzoyl)-L-glutamic Acid]
[1]
  IC50: > 1000 nM
[2]
  IC50: > 1000 nM
[3]
  IC50: 591 nM
[4]
  IC50: 7.19 nM
other
  melting point: 128 to 129.8 °C

## Nc1nc2sc(CCCCc3ccc(C(=O)N[C@@H](CCC(=O)O)C(=O)O)c(F)c3)cc2c(=O)[nH]1 [Compound 7, (4-(4-(2-Amino-4-oxo-3,4-dihydrothieno[2,3-d]pyrimidin-6-yl)butyl)-2-fluorobenzoyl)-L-glutamic Acid]
[1]
  IC50: > 1000 nM
[2]
  IC50: > 1000 nM
[3]
  IC50: > 1000 nM
[4]
  IC50: 5.27 nM
other
  melting point: 121.7 to 122.6 °C

## Nc1nc2sc(CCCc3csc(C(=O)N[C@@H](CCC(=O)O)C(=O)O)c3F)cc2c(=O)[nH]1 [Compound 8, (4-(3-(2-Amino-4-oxo-3,4-dihydrothieno[2,3-d]pyrimidin-6-yl)propyl)-3-fluorothiophene-2-carbonyl)-L-glutamic Acid]
[1]
  IC50 RFC PC43-10: slight inhibition
  IC50: 560 nM
[2]
  IC50: > 1000 nM
[3]
  IC50: > 1000 nM
[4]
  IC50: 6.84 nM

## Nc1nc2sc(CCCCc3csc(C(=O)N[C@@H](CCC(=O)O)C(=O)O)c3F)cc2c(=O)[nH]1 [Compound 9, (4-(4-(2-Amino-4-oxo-3,4-dihydrothieno[2,3-d]pyrimidin-6-yl)butyl)-3-fluorothiophene-2-carbonyl)-L-glutamic Acid]
[1]
  IC50: > 1000 nM
[2]
  IC50: > 1000 nM
[3]
  IC50: 167 nM
[4]
  IC50: 2.63 nM
other
  melting point: 142.3 to 143.5 °C
